Laboratory results as given in ChEMBL document CHEMBL1134904, “The activity of p-methoxybenzylisothiocyanate against Neisseria gonorrhoeae, Haemophilus ducreyi, and other microorganisms” (Bioorg Med Chem Lett, 2002).
≈ marks a conversion by molar mass, not a printed value.

Key:
[1] = system: Bacillus subtilis; experiment: The compound was tested for minimal inhibitory concentration against Bacillus subtilis; format: functional
[2] = system: Escherichia coli; experiment: The compound was tested for minimal inhibitory concentration against Escherichia coli; format: functional
[3] = system: Enterobacter sp.; experiment: The compound was tested for minimal inhibitory concentration against Enterobacter sp.; format: functional
[4] = system: [Haemophilus] ducreyi; experiment: The compound was tested for minimal inhibitory concentration against Haemophilus ducreyi; format: functional
[5] = system: Micrococcus luteus; experiment: The compound was tested for minimal inhibitory concentration against Micrococcus luteus; format: functional
[6] = system: Neisseria gonorrhoeae; experiment: The compound was tested for minimal inhibitory concentration against Neisseria gonorrhoeae; format: functional
[7] = system: Staphylococcus aureus; experiment: The compound was tested for minimal inhibitory concentration against Resistant Staphylococcus aureus; format: functional
[8] = system: Staphylococcus aureus; experiment: The compound was tested for minimal inhibitory concentration against Staphylococcus aureus; format: functional
[9] = system: Pseudomonas aeruginosa; experiment: The compound was tested for minimal inhibitory concentration against Pseudomonas aeruginosa; format: functional
[10] = system: Neisseria gonorrhoeae; experiment: The compound was tested for minimal inhibitory concentration against Penicillinase producing Neisseria gonorrhoeae (PPNG); format: functional
[11] = system: Pseudomonas aeruginosa; experiment: The compound was tested for minimal inhibitory concentration against Resistant Pseudomonas aeruginosa; format: functional
[12] = system: Candida albicans; experiment: The compound was tested for minimal inhibitory concentration against Candida albicans; format: functional
[13] = In vitro cellular toxicity was determined at a concentration of 100 uM in Graham cell lines; found to be non toxic at the above concentration; format: cell-based

SMILES | MIC [1] | MIC [2] | MIC [3] | MIC [4] | MIC [5] | MIC [6] | MIC [7] | MIC [8] | MIC [9] | MIC [10] | MIC [11] | MIC [12] | Toxicity [13]
CC1(C)S[C@@H]2[C@H](NC(=O)[C@H](N)c3ccccc3)C(=O)N2[C@H]1C(=O)O [AMPICILLIN] | > 32 µg/mL | 8 µg/mL (≈ 22.9 µM) | 16 µg/mL (≈ 45.8 µM) | 2 µg/mL (≈ 5.72 µM) | 2 µg/mL (≈ 5.72 µM) | 0.25 µg/mL (≈ 0.715 µM) | > 32 µg/mL | 2 µg/mL (≈ 5.72 µM) | > 32 µg/mL | > 32 µg/mL | – | – | –
O=C(O)c1cn(C2CC2)c2cc(N3CCNCC3)c(F)cc2c1=O [CIPROFLOXACIN] | 2 µg/mL (≈ 6.04 µM) | – | 2 µg/mL (≈ 6.04 µM) | – | 2 µg/mL (≈ 6.04 µM) | 0.25 µg/mL (≈ 0.754 µM) | > 32 µg/mL | 2 µg/mL (≈ 6.04 µM) | – | 0.25 µg/mL (≈ 0.754 µM) | > 32 µg/mL | – | –
C[C@@H]1[C@H](O)[C@@H](C)/C=C/C=C/C=C/C=C/C=C/C=C/C=C/[C@H](O[C@@H]2O[C@H](C)[C@@H](O)[C@H](N)[C@@H]2O)C[C@@H]2O[C@](O)(C[C@@H](O)C[C@@H](O)[C@H](O)CC[C@@H](O)C[C@@H](O)CC(=O)O[C@H]1C)C[C@H](O)[C@H]2C(=O)O (relative stereo) [AMPHOTERICIN B] | – | – | – | – | – | – | – | – | – | – | – | 2 µg/mL (≈ 2.16 µM) | –
C[C@H]1c2cccc(O)c2C(=O)C2=C(O)[C@]3(O)C(=O)C(C(N)=O)=C(O)[C@@H](N(C)C)[C@@H]3[C@@H](O)[C@@H]21.O [DOXYCYCLINE] | 8 µg/mL | 2 µg/mL | 8 µg/mL | 4 µg/mL | 8 µg/mL | 0.5 µg/mL | > 32 µg/mL | 8 µg/mL | 8 µg/mL | > 32 µg/mL | > 32 µg/mL | – | –
COc1ccc(CN=C=S)cc1 | 32 µg/mL (≈ 179 µM) | 32 µg/mL (≈ 179 µM) | 8 µg/mL (≈ 44.6 µM) | 64 µg/mL (≈ 357 µM) | 8 µg/mL (≈ 44.6 µM) | 4 µg/mL (≈ 22.3 µM) | 8 µg/mL (≈ 44.6 µM) | 2 µg/mL (≈ 11.2 µM) | 16 µg/mL (≈ 89.3 µM) | 4 µg/mL (≈ 22.3 µM) | 16 µg/mL (≈ 89.3 µM) | 2 µg/mL (≈ 11.2 µM) | Not toxic
OC(Cn1cncn1)(Cn1cncn1)c1ccc(F)cc1F [FLUCONAZOLE] | – | – | – | – | – | – | – | – | – | – | – | 0.25 µg/mL (≈ 0.816 µM) | –
